Assay results from the supplement of paper PMC10307832.

Assays:
Experiment in all cases: relative viability (nuclei count vs DMSO), 5 days (fraction); higher = more cells survive
[1] = compound: CN(C)C/C=C/C(=O)Nc1cc2c(Nc3ccc(F)c(Cl)c3)ncnc2cc1O[C@H]1CCOC1 [Afatinib] + CCNC(=O)c1noc(-c2cc(C(C)C)c(O)cc2O)c1-c1ccc(CN2CCOCC2)cc1 [Luminespib] (partner 0.01 µM)
In short: (§1)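 Relative viability was taken as the ratio of nuclei in treated wells to nuclei in vehicle wells. Lung cancer cell lines in 1536-well plates received compounds by pin tool one day after seeding, either one drug alone or a fixed anchor-drug dose plus five library-drug doses (not always all listed) in √10 steps. Nuclei were counted on 4× images after 5 days of treatment, and values are medians of duplicate plates.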

[2] = compound: CN(C)C/C=C/C(=O)Nc1cc2c(Nc3ccc(F)c(Cl)c3)ncnc2cc1O[C@H]1CCOC1 [Afatinib] + CS(=O)(=O)CCNCc1ccc(-c2ccc3ncnc(Nc4ccc(OCc5cccc(F)c5)c(Cl)c4)c3c2)o1 [Lapatinib] (partner 2 µM)
In short: as §1

[3] = compound: CN(C)C/C=C/C(=O)Nc1cc2c(Nc3ccc(F)c(Cl)c3)ncnc2cc1O[C@H]1CCOC1 [Afatinib] + Nc1ncn([C@H]2C[C@H](O)[C@@H](CO)O2)c(=O)n1 [Decitabine] (partner 2 µM)
In short: as §1

[4] = compound: CN(C)C/C=C/C(=O)Nc1cc2c(Nc3ccc(F)c(Cl)c3)ncnc2cc1O[C@H]1CCOC1 [Afatinib] + O=C(c1cc(Cc2n[nH]c(=O)c3ccccc23)ccc1F)N1CCN(C(=O)C2CC2)CC1 [Olaparib] (partner 8 µM)
In short: as §1

## COR-L23
[1]; first compound 0.005 µM
  relative viability: 0.804
[1]; first compound 0.01581 µM
  relative viability: 0.603
[1]; first compound 0.05 µM
  relative viability: 0.773
[1]; first compound 0.1581 µM
  relative viability: 0.644
[1]; first compound 0.5 µM
  relative viability: 0.68
[2]; first compound 0.005 µM
  relative viability: 1.22
[2]; first compound 0.01581 µM
  relative viability: 0.916
[2]; first compound 0.05 µM
  relative viability: 0.877
[2]; first compound 0.1581 µM
  relative viability: 0.933
[2]; first compound 0.5 µM
  relative viability: 1.11
[3]; first compound 0.005 µM
  relative viability: 0.504
[3]; first compound 0.01581 µM
  relative viability: 0.436
[3]; first compound 0.05 µM
  relative viability: 0.468
[3]; first compound 0.1581 µM
  relative viability: 0.47
[3]; first compound 0.5 µM
  relative viability: 0.529
[4]; first compound 0.005 µM
  relative viability: 0.325
[4]; first compound 0.01581 µM
  relative viability: 0.325
[4]; first compound 0.05 µM
  relative viability: 0.358
[4]; first compound 0.1581 µM
  relative viability: 0.369
[4]; first compound 0.5 µM
  relative viability: 0.366

## NCI-H1944
[1]; first compound 0.005 µM
  relative viability: 0.609
[1]; first compound 0.01581 µM
  relative viability: 0.629
[1]; first compound 0.05 µM
  relative viability: 0.552
[1]; first compound 0.1581 µM
  relative viability: 0.498
[1]; first compound 0.5 µM
  relative viability: 0.491
[2]; first compound 0.005 µM
  relative viability: 0.884
[2]; first compound 0.01581 µM
  relative viability: 0.795
[2]; first compound 0.05 µM
  relative viability: 0.691
[2]; first compound 0.1581 µM
  relative viability: 0.799
[2]; first compound 0.5 µM
  relative viability: 0.858
[3]; first compound 0.005 µM
  relative viability: 0.423
[3]; first compound 0.01581 µM
  relative viability: 0.403
[3]; first compound 0.05 µM
  relative viability: 0.419
[3]; first compound 0.1581 µM
  relative viability: 0.343
[3]; first compound 0.5 µM
  relative viability: 0.344
[4]; first compound 0.005 µM
  relative viability: 0.384
[4]; first compound 0.01581 µM
  relative viability: 0.364
[4]; first compound 0.05 µM
  relative viability: 0.39
[4]; first compound 0.1581 µM
  relative viability: 0.326
[4]; first compound 0.5 µM
  relative viability: 0.332

## NCI-H2405
[1]; first compound 0.005 µM
  relative viability: 0.578
[1]; first compound 0.01581 µM
  relative viability: 0.695
[1]; first compound 0.05 µM
  relative viability: 0.648
[1]; first compound 0.1581 µM
  relative viability: 0.388
[1]; first compound 0.5 µM
  relative viability: 0.441
[2]; first compound 0.005 µM
  relative viability: 1.11
[2]; first compound 0.01581 µM
  relative viability: 1.09
[2]; first compound 0.05 µM
  relative viability: 1.33
[2]; first compound 0.1581 µM
  relative viability: 1.04
[2]; first compound 0.5 µM
  relative viability: 1.07
[3]; first compound 0.005 µM
  relative viability: 0.716
[3]; first compound 0.01581 µM
  relative viability: 0.764
[3]; first compound 0.05 µM
  relative viability: 0.703
[3]; first compound 0.1581 µM
  relative viability: 0.642
[3]; first compound 0.5 µM
  relative viability: 0.656
[4]; first compound 0.005 µM
  relative viability: 0.885
[4]; first compound 0.01581 µM
  relative viability: 0.934
[4]; first compound 0.05 µM
  relative viability: 0.864
[4]; first compound 0.1581 µM
  relative viability: 0.874
[4]; first compound 0.5 µM
  relative viability: 0.852

## SK-LU-1
[1]; first compound 0.005 µM
  relative viability: 0.19
[1]; first compound 0.01581 µM
  relative viability: 0.206
[1]; first compound 0.05 µM
  relative viability: 0.233
[1]; first compound 0.1581 µM
  relative viability: 0.193
[1]; first compound 0.5 µM
  relative viability: 0.193
[2]; first compound 0.005 µM
  relative viability: 1.33
[2]; first compound 0.01581 µM
  relative viability: 0.89
[2]; first compound 0.05 µM
  relative viability: 0.803
[2]; first compound 0.1581 µM
  relative viability: 0.941
[2]; first compound 0.5 µM
  relative viability: 0.915
[3]; first compound 0.005 µM
  relative viability: 0.641
[3]; first compound 0.01581 µM
  relative viability: 0.674
[3]; first compound 0.05 µM
  relative viability: 0.661
[3]; first compound 0.1581 µM
  relative viability: 0.621
[3]; first compound 0.5 µM
  relative viability: 0.619
[4]; first compound 0.005 µM
  relative viability: 0.49
[4]; first compound 0.01581 µM
  relative viability: 0.447
[4]; first compound 0.05 µM
  relative viability: 0.414
[4]; first compound 0.1581 µM
  relative viability: 0.492
[4]; first compound 0.5 µM
  relative viability: 0.452

## EMC-BAC-2
[1]; first compound 0.005 µM
  relative viability: 1.23
[1]; first compound 0.01581 µM
  relative viability: 1.13
[1]; first compound 0.05 µM
  relative viability: 1.13
[1]; first compound 0.1581 µM
  relative viability: 1.04
[1]; first compound 0.5 µM
  relative viability: 1.16
[2]; first compound 0.005 µM
  relative viability: 0.888
[2]; first compound 0.01581 µM
  relative viability: 0.858
[2]; first compound 0.05 µM
  relative viability: 0.892
[2]; first compound 0.1581 µM
  relative viability: 0.941
[2]; first compound 0.5 µM
  relative viability: 0.91
[3]; first compound 0.005 µM
  relative viability: 0.968
[3]; first compound 0.01581 µM
  relative viability: 0.924
[3]; first compound 0.05 µM
  relative viability: 0.98
[3]; first compound 0.1581 µM
  relative viability: 0.901
[3]; first compound 0.5 µM
  relative viability: 1.02
[4]; first compound 0.005 µM
  relative viability: 0.53
[4]; first compound 0.01581 µM
  relative viability: 0.501
[4]; first compound 0.05 µM
  relative viability: 0.595
[4]; first compound 0.1581 µM
  relative viability: 0.554
[4]; first compound 0.5 µM
  relative viability: 0.531

## NCI-H1650
[1]; first compound 0.005 µM
  relative viability: 0.181
[1]; first compound 0.05 µM
  relative viability: 0.188
[1]; first compound 0.1581 µM
  relative viability: 0.164
[1]; first compound 0.5 µM
  relative viability: 0.224
[2]; first compound 0.005 µM
  relative viability: 0.903
[2]; first compound 0.05 µM
  relative viability: 1.09
[2]; first compound 0.1581 µM
  relative viability: 0.772
[2]; first compound 0.5 µM
  relative viability: 0.598
[3]; first compound 0.005 µM
  relative viability: 0.383
[3]; first compound 0.01581 µM
  relative viability: 0.403
[3]; first compound 0.05 µM
  relative viability: 0.426
[3]; first compound 0.1581 µM
  relative viability: 0.503
[3]; first compound 0.5 µM
  relative viability: 0.368
[4]; first compound 0.005 µM
  relative viability: 0.784
[4]; first compound 0.01581 µM
  relative viability: 0.708
[4]; first compound 0.05 µM
  relative viability: 0.804
[4]; first compound 0.1581 µM
  relative viability: 0.712
[4]; first compound 0.5 µM
  relative viability: 0.547

## NCI-H596
[1]; first compound 0.005 µM
  relative viability: 1.01
[1]; first compound 0.01581 µM
  relative viability: 1
[1]; first compound 0.05 µM
  relative viability: 0.894
[1]; first compound 0.1581 µM
  relative viability: 0.778
[1]; first compound 0.5 µM
  relative viability: 0.984
[2]; first compound 0.005 µM
  relative viability: 1.09
[2]; first compound 0.01581 µM
  relative viability: 1.08
[2]; first compound 0.05 µM
  relative viability: 1.09
[2]; first compound 0.1581 µM
  relative viability: 1.02
[2]; first compound 0.5 µM
  relative viability: 1.02
[3]; first compound 0.005 µM
  relative viability: 1.02
[3]; first compound 0.01581 µM
  relative viability: 0.962
[3]; first compound 0.05 µM
  relative viability: 1.08
[3]; first compound 0.1581 µM
  relative viability: 1.1
[3]; first compound 0.5 µM
  relative viability: 1.01
[4]; first compound 0.005 µM
  relative viability: 0.706
[4]; first compound 0.01581 µM
  relative viability: 0.707
[4]; first compound 0.05 µM
  relative viability: 0.697
[4]; first compound 0.1581 µM
  relative viability: 0.58
[4]; first compound 0.5 µM
  relative viability: 0.685

## LCLC-97TM1
[1]; first compound 0.005 µM
  relative viability: 0.785
[1]; first compound 0.01581 µM
  relative viability: 0.862
[1]; first compound 0.05 µM
  relative viability: 0.708
[1]; first compound 0.1581 µM
  relative viability: 0.722
[1]; first compound 0.5 µM
  relative viability: 0.68
[2]; first compound 0.005 µM
  relative viability: 1.11
[2]; first compound 0.01581 µM
  relative viability: 0.837
[2]; first compound 0.05 µM
  relative viability: 1.11
[2]; first compound 0.1581 µM
  relative viability: 0.688
[2]; first compound 0.5 µM
  relative viability: 0.568
[3]; first compound 0.005 µM
  relative viability: 0.262
[3]; first compound 0.01581 µM
  relative viability: 0.17
[3]; first compound 0.05 µM
  relative viability: 0.234
[3]; first compound 0.1581 µM
  relative viability: 0.273
[3]; first compound 0.5 µM
  relative viability: 0.255
[4]; first compound 0.005 µM
  relative viability: 0.424
[4]; first compound 0.01581 µM
  relative viability: 0.351
[4]; first compound 0.05 µM
  relative viability: 0.348
[4]; first compound 0.1581 µM
  relative viability: 0.273
[4]; first compound 0.5 µM
  relative viability: 0.397
